These are literature values, as cited in PMC6328430, “Radiation dosimetry of [^68Ga]PSMA-11 in low-risk prostate cancer patients” (EJNMMI Physics, 2019).

For this data set the following is noted: cited from earlier work.

Consider `C[11C](=O)O` [[^11C]Acetate], for which the Effective dose was 0.0049 mSv/MBq.

For the compound `C[N+](C)(C[18F])CCO` [[^18F]Choline], the Effective dose was 0.01 mSv/MBq.
